The results in this text go back to US12383579B2, “Materials and methods of using an inhibitor of plasminogen activation to treat anastomotic leak” (THE UNIVERSITY OF CHICAGO, priority 2018, dated 2025).

The subject of assay [1] is type IV collagen degradation by collagenolytic E. faecalis E44. Kind of assay: Collagen degradation by E. faecalis E44 with PLG, uPA and MMP9. The assay is classed as biochemical, Enterococcus faecalis. To be noted: fluorescently tagged type IV collagen. As for the experimental part: (§1) Collagen degradation. Assays were performed per the manufacturer's instructions as previously described with slight modifications (51′). Bacteria were grown overnight in TY. Optical density was normalized to 0.1 through dilution. […] Total reaction volume was 200 L. The incubation proceeded at 37° C. for 5 hours to allow for bacterial attachment to collagen and PLG binding. uPA was added and the incubation proceeded for an additional hour. Change in fluorescence over time at 480/520 nm was determined kinetically over the initial 30 minutes of the reaction.
The role of activated plasminogen (PLG) in anastomotic leak. […] Co-incubation of E44 with murine macrophages ([…]) was performed for studies involving conditioned media. Twenty-week-old male C57BL/6 mice underwent the validated model of E44-induced AL that includes preoperative antibiotics to defaunate the colon, surgical transection and anastomosis of the colon and introduction of E44 in 10% glycerol to the surgical site via rectal enema on postoperative day 1. […] Anastomotic healing was assessed blindly using a validated anastomotic healing score (AHS): 0=uncomplicated healing, 1=flimsy adhesions, 2=dense adhesions, 3=abscess, and 4=gross anastomotic disruption. AL was defined as AHS 3 or above.

Assay [2] relates to RAW macrophages stimulated by V583. Kind of assay: Gelatin degradation by V583-stimulated RAW macrophages. Type of assay: cell-based, murine. As to conditions: 10 mM TXA.
For assay [3], the system named is E. faecalis V583-induced AL.
Experimental: Mouse model of AL. The experiments disclosed herein used the validated model of pathogen-mediated AL in mice (8′). Ten- to 12-week-old C57BL/6 mice (Charles River) were provided standard chow and tap water ad libidum at all times. When indicated, mice received oral clindamycin (100 mg/kg gavage) and subcutaneous cefoxitin (40 mg/kg) the day prior to, and the day of, surgery. Mice underwent general anesthesia with intraperitoneal ketamine and xylocaine and laparotomy followed by transection of the colon at the colo-rectal junction followed by a primary anastomosis created with interrupted 8-0 prolene suture prior to abdominal closure with 4-0 vicryl suture in two layers. Rectal enemas containing pathogen, either E. faecalis or P. aeruginosa at an OD600 of 0.1 in 10% glycerol, were administered in 100 L enemas. E. faecalis was introduced on POD 1, 2, and 3, while P. aeruginosa was introduced only on POD 1. Mice received 100 L rectal enemas containing 50 mM TXA or vehicle control on postoperative days 1, 2, and 3. Rectal delivery with a gavage needle ensured local administration of pathogen and study drugs to the surgical site. […] Both the surgeon and the investigator performing analysis of healing were blind to the treatment group. […]
The test system of assay [4] is type IV collagen degradation by V583. Kind of assay: Type IV collagen degradation by E. faecalis V583 with PLG and uPA. The assay is classed as biochemical, Enterococcus faecalis. As for the experimental part: as §1
In assay [5] the target is FITC-PLG at the anastomosis (Homo sapiens, UniProt P00747). Briefly: In vivo deposition of FITC-PLG at surgical anastomoses. Set-up: species or system mice. As to conditions: TXA enema one hour prior to sacrifice, 48 and 72 hours post-operative.
Experimental: Mice underwent anastomosis without exposure to antibiotics or exogenous pathogen followed by intraperitoneal injection with FITC-PLG and either TXA or vehicle control enema one hour prior to sacrifice. Three animals per treatment group were sacrificed at various time points. […] Either TXA or water vehicle enema was administered along with systemic FITC-PLG injection one hour prior to sacrifice. […] Total FITC-PLG fluorescent signal was quantified in all mice as integrated density/area. […] A segment of anastomotic tissue collected from a mouse that received no enemas at 24 hours post-operative was observed. FITC-PLG fluorescence intensity is spatially quantified across the length of the tissue.
Mean FITC staining intensity was quantified as integrated density/area at the anastomotic sites of three mice per treatment group at the 48- and 72-hour time points.

Entries after “also recorded” stand apart in the source; their conditions may differ.

Chain of FITC-PLG at the anastomosis (P00747 20-810 limits assumed): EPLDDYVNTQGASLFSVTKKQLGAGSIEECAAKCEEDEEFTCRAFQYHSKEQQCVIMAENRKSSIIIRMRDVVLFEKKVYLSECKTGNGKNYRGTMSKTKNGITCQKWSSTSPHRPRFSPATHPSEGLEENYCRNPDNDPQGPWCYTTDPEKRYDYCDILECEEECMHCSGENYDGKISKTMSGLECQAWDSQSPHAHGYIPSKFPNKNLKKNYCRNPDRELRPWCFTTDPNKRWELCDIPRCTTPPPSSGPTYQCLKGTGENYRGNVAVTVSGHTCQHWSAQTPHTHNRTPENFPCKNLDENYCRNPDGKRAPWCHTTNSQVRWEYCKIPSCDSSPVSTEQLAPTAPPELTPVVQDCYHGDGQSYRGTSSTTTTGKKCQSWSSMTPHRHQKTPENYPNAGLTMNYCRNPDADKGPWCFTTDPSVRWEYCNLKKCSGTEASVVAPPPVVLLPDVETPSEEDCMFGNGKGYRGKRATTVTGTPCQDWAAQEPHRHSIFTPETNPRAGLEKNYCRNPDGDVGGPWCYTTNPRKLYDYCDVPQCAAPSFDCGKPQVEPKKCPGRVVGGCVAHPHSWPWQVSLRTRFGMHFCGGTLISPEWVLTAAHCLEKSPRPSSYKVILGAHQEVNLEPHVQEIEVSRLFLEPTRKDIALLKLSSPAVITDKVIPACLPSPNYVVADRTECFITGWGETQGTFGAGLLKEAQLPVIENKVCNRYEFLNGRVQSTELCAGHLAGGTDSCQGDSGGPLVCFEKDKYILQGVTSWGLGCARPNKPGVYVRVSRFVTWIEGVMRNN

Turning to `NC[C@H]1CC[C@H](C(=O)O)CC1` [TXA, tranexamic acid], the “collagen degradation by E44 with PLG, uPA and MMP9” value is “inhibited by TXA in a concentration-dependent fashion; also recorded: collagen degradation was inhibited” in assay [1] and “inhibited in a concentration-dependent manner” in assay [1] (listed as tranexamic acid). Also, the “gelatin degradation in V583-stimulated macrophages” value in assay [2] (PLG, uPA, 6 hours, no added pro-MMP9) was “significantly inhibited gelatin degradation”; in assay [2] (with added pro-MMP9), “significantly diminished”. The “mean anastomotic healing score (AHS)” value in assay [3] (100 μL enema of 50 mM TXA POD 1, 2, 3, POD 8, vehicle 2.7±0.2) is listed as 1.5±0.2. Moreover, in assay [3] (TXA enema versus vehicle with AL), the “trichrome staining of POD8 anastomotic tissue” value is “increased quantity and organization of fibroblastic products in the submucosa”. In addition, the “type IV collagen degradation by V583 with PLG and uPA” value in assay [4] (V583, PLG, uPA and TXA) is listed as “concentration-dependent inhibition”. Moreover, in assay [4] (same concentration levels as for PLG activation (FIG. 23)), the “reduction of bacterial collagen degradation” value is recorded as “over 80%”. Moreover, in assay [5], the “FITC-PLG positivity at the anastomosis (integrated density/area)” value is on record as “significantly decreased the amount of FITC-PLG positivity at the anastomosis at both time points”.
